Results as given in patent EP1142583A1, “ANTITUMOR AGENTS” (TEIKOKU HORMONE MFG. CO., LTD., priority 1999, dated 2000).
Read-outs that look alike come from different tables or passages of the source.

System: WiDr cells
Test: Cell death rate by flow cytometry (PI DNA content, EPICS XL)
Assay type: cell-based, human
Conditions: for Cell death rate (%): WiDr cells
Method: DMEM medium containing 10% fetal bovine serum was placed in plastic culture dishes having a diameter of 6 cm. Then, WiDr cells (obtained from HSRRB), which were human colon carcinoma cells, were inoculated thereinto so as to give a density of 2.0 x 10^5 cells/3 mL. These culture dishes were incubated at 37°C for 48 hours. Moreover, 1/1000 volume of PD98059 (with a final concentration of 50 µmol/L) or solvent (DMSO) was added thereto, followed by incubation for 12 hours. Thereafter, 1/1000 volume of TZT-1027 (with a final concentration of 10 nmol/L) or solvent (a lactic acid buffer) was added thereto. Where vincristine was used as the microtubule-interfering agent, 1/1000 volume of vincristine sulfate (with a final concentration of 100 nmol/L) or solvent (DMSO) was added thereto. Twenty-four (24), 48, 72 or 96 hours after the addition of TZT-1027, vincristine or solvent, cells were collected and worked up according to the following procedure. With respect to a solvent control group and a group treated with PD98059 alone, cells were similarly collected and worked up after 96 hours' incubation.
First of all, all of the culture medium was transferred to a centrifuge tube. The remaining cells were suspended by adding 1 mL of a 0.05% trypsin/phosphate-buffered physiological saline (PBS)-EDTA solution to the culture dish and incubating it at 37°C for 5 minutes, and combined with the above culture medium. The centrifuge tube was centrifuged at 1,500 rpm for 5 minutes. Then, the precipitate was resuspended in 1 mL of PBS, transferred to a light-shielding microtube, and centrifuged at 2,500 rpm for 5 minutes. After the precipitate was suspended in 60 µL of PBS, 140 µL of 100% ethanol was added thereto and the resulting suspension was stirred and allowed to stand at -20°C overnight or longer. Moreover, the suspension was centrifuged at 2,500 rpm for 5 minutes, and 100 µL of a phosphate-citric acid buffer (0.2M […] : 0.1M citric acid = 24:1) was added to the precipitate, followed by stirring (at 500 rpm) at room temperature for 30 minutes. After suspension was centrifuged at 2,500 rpm for 5 minutes, 100 µL of PBS and 1 µL of an RNase solution (10 mg/mL (PBS); obtained from SIGMA) was added to the precipitate, followed by incubation at 37°C for 30 minutes. Thereafter, 880 µL of PBS and 20 µL of a propidium iodide (hereinafter referred to as "PI") solution (1 mg/mL (PBS); obtained from Wako Pure Chemical Industries Ltd.) were added thereto and reacted at room temperature for 30 minutes with stirring. The resulting reaction mixture was allowed to stand in the dark under cooling with ice until it was used for measurement.
The cell death rate was measured and analyzed by means of an EPICS XL system (manufactured by COULTER). Prior to analysis, the EPICS XL system was checked by means of DNAcheck (manufactured by COULTER).
Next, a protocol used for calculating the cell death rate by using the DNA content as a parameter was constructed. In this protocol, FS (forward scatter), SS (side scatter) and FL3 (PI fluorescence) were selected as parameters, and the number of analyzed cells was 30,000. Furthermore, by measuring a control sample of cells to be actually measured, the sensitivity of the detector and regions were preset with consideration for each parameter. Measurements were made by pipetting a sample at several times, transferring it into an exclusive tube, and setting it in the main unit of the EPICS XL system. The cell death rate was calculated by use of histograms in the protocol, which were constructed by removing doublets and triplets from data incorporating dead cells.

[1] = Homo sapiens, WiDr, 96 h, read-out: Cell death rate (%)
[2] = Homo sapiens, WiDr, 24 h, read-out: Cell death rate (%)
[3] = Homo sapiens, WiDr, 48 h, read-out: Cell death rate (%)

Q: `COc1cccc(-c2cc(=O)c3ccccc3o2)c1N` [PD98059, 2-(2-amino-3-methoxyphenyl)-4H-chromen-4-one] was tested. Which cytotoxicity at 50 µM [1] did it give?
A: 8.9%

Q: How did the cytotoxicity at 0.01 µM [2] turn out when `CC[C@H](C)[C@@H]([C@@H](CC(=O)N1CCC[C@H]1[C@H](OC)[C@@H](C)C(=O)NCCc1ccccc1)OC)N(C)C(=O)[C@@H](NC(=O)[C@H](C(C)C)N(C)C)C(C)C` [TZT-1027, N^2-(N,N-Dimethyl-L-valyl)-N-[(1S,2R)-2-methoxy-4-[(2S)-2-[(1R,2R)-1-methoxy-2-methyl-3-oxo-3-[(2-phenylethyl)-amino]propyl]-1-pyrrolidinyl]-1-[(S)-1-methylpropyl]-4-oxobutyl]-N-methyl-L-valinamide] was run?
A: 3.8%

Q: What about the cytotoxicity at 0.01 µM [3] of the same molecule?
A: 9.2%

Q: What about the cytotoxicity at 0.01 µM [1] of the same molecule?
A: 23.3%

Q: And the “Cell death rate (%)” value (TZT-1027 10 nmol/L combined with PD98059 50 µmol/L (added 12 hours before), time 24)?
A: 10.5%

Q: What about the “Cell death rate (%)” value (TZT-1027 10 nmol/L combined with PD98059 50 µmol/L (added 12 hours before), time 48) of the same molecule?
A: 35.9%

Q: And the “Cell death rate (%)” value (TZT-1027 10 nmol/L combined with PD98059 50 µmol/L (added 12 hours before), time 96)?
A: 48.1%

Q: What does the source list for `CC[C@]1(O)C[C@H]2CN(CCc3c([nH]c4ccccc34)[C@@](C(=O)OC)(c3cc4c(cc3OC)N(C=O)[C@H]3[C@@](O)(C(=O)OC)[C@H](OC(C)=O)[C@]5(CC)C=CCN6CC[C@]43[C@@H]65)C2)C1` [Vincristine, vincristine]?
A: cytotoxicity at 0.1 µM [2]: 4.5%; cytotoxicity at 0.1 µM [3]: 8.4%; cytotoxicity at 0.1 µM (Homo sapiens, WiDr, 72 h, read-out: Cell death rate (%)): 23.3%; Cell death rate (%) (Vincristine 100 nmol/L combined with PD98059 50 µmol/L (added 12 hours before), time 24): 12.1%; Cell death rate (%) (Vincristine 100 nmol/L combined with PD98059 50 µmol/L (added 12 hours before), time 48): 37.4%; Cell death rate (%) (Vincristine 100 nmol/L combined with PD98059 50 µmol/L (added 12 hours before), time 72): 58.7%
